# From US9493537B2, “Compounds with reduced ring size for use in diagnosing and treating melanoma, including metastatic melanoma and methods related to same” (STC.UNM, priority 2009, dated 2016)
# Read-outs that look alike come from different tables or passages of the source.
# Key:
# [1] = test system: B16/F1 melanoma; conditions: literature, cited from earlier work
# [2] = In vitro serum stability in mouse serum; type: in vitro ADME; conditions: 37° C., 24 h
# Protocol: After the incubation, 10 μL of 0.5% EDTA aqueous solution was added into the reaction vial to scavenge potential unbound ^111In^3+ ions. The radiolabeled peptide was purified to single species by Waters RP-HPLC (Milford, Mass.) on a Grace Vydac C-18 reverse phase analytical column (Deerfield, Ill.) using a 20-minute gradient of 18-28% acetonitrile in 20 mM HCl aqueous solution with a flow rate of 1.0 mL/min. Purified peptide sample was purged with N2 gas for 20 minutes to remove the acetonitrile. The pH of final solution was adjusted to 7.4 with 0.1 N NaOH and sterile normal saline for animal studies.
# Briefly, 50 μL of ^111InCl3 (37-74 MBq in 0.05 M HCl aqueous solution), 10 μL of 1 mg/mL peptide aqueous solution and 400 μL of 0.5 M NH4OAc (pH 4.5) were added into a reaction vial and incubated at 75° C. for 45 mins. After the incubation, 10 μL of 0.5% EDTA (ethylenediaminetetraacetic acid) aqueous solution was added into the reaction vial to scavenge potential unbound ^111In^3+ ions. The radiolabeled complexes were purified to single species by Waters RP-HPLC (Milford, Mass.) on a Grace Vydac C-18 reverse phase analytical column (Deerfield, Ill.) using the following gradient at a 1 mL/min flowrate. The mobile phase consisted of solvent A (20 mM HCl aqueous solution) and solvent B (100% CH3CN). The gradient was initiated and kept at 82:18 A/B for 3 mins followed by a linear gradient of 82:18 A/B to 72:28 A/B over 20 mins. Then, the gradient was changed from 72:28 A/B to 10:90 A/B over 3 mins followed by an additional 5 mins at 10:90 A/B. Thereafter, the gradient was changed from 10:90 AB to 82:18 AB over 3 mins. Each purified peptide sample was purged with N2 gas for 20 mins to remove the acetonitrile. The pH of the final solution was adjusted to 7.4 with 0.1 N NaOH and sterile saline for animal studies. In vitro serum stability of ^111In-DOTA-GGNle-CycMSHhex and ^111In-DOTA-GENle-CycMSHhex were determined by incubation in mouse serum at 37° C. for 24 h and monitored for degradation by RP-HPLC.
compound,measurement,setting,value
"CCCC[C@H](NC(=O)CN1CCN(CC(=O)O)CCN(CC(=O)O)CCN(CC(=O)O)CC1)C(=O)N[C@H]1CC(=O)NCCCC[C@@H](C(N)=O)NC(=O)[C@H](Cc2c[nH]c3ccccc23)NC(=O)[C@H](CCCNC(=N)N)NC(=O)[C@@H](Cc2ccccc2)NC(=O)[C@H](Cc2c[nH]cn2)NC1=O [^111In-DOTA-Nle-CycMSHhex, metal not drawn]",tumor (melanoma) uptake,[1]; 0.5 h post-injection,24.94±4.58 % ID/g
same,tumor (melanoma) uptake,[1]; 2 h post-injection,19.39±1.65 % ID/g
same,tumor (melanoma) uptake,[1]; 4 h post-injection,17.01±2.54 % ID/g
same,serum stability by RP-HPLC,[2],stable
